Data reported in patent publication US12187758B2 (ROME Therapeutics, Inc., priority 2022, dated 2025).

Assays:
Assay type in all cases: cell-based
PC3 cells = assay: Mitochondria toxicity assay with PC3 cells, cytotoxicity (Cell Titer Glo); conditions: Homo sapiens, PC-3, 120 h, 5 days treatment
Procedure, shortened: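 Cytotoxicity reported in μM bins, A <1.0 through E >100.0. Measured via Cell Titer Glo luminescence (30 min, room temperature) after 5-day dose-titration treatment of PC3 cells, grown in F-12K/10% FBS, at 37° C, 5% CO2.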

[1] = tested on: SDH-A (succinate dehydrogenase-A); assay: Mitochondria toxicity assay with PC3 cells, in-cell ELISA SDH-A; conditions: 5 days treatment
Procedure, shortened: (§1)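 This in-cell ELISA was run on fixed, permeabilized PC3 cells after 5-day exposure to titrated compound, with cytotoxicity measured on a duplicate plate. Results are reported as categories A (<1.0 μM) to E (>100.0 μM).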

[2] = tested on: phosphorylated TANK-binding kinase 1 (pTBK1); assay: UVB-induced pTBK1 in HaCaT cells; conditions: Homo sapiens, light or radiation study, pTBK1 response curves, 72 hours compound treatment, UVB
Procedure: pTBK1 is an important signaling molecule in regulating inflammatory responses. HaCaT cells were plated in 6-well plates at a density of ˜100 k/well in HaCaT media (DMEM, optimized 1× (Addex Bio)+ 1% pen strep (Gibco)^+ 5% heat inactivated fetal bovine serum (Gibco)). The cells were then cultured at 37° C. overnight. The next day, the cells were treated with the test compounds. Each test compound was diluted and added to media aliquots to provide desired concentrations. To add the test compound+media mixture, an equivalent amount of media from each well was aspirated and then replenished with the media dosed with the test compound. The cells were then cultured for an additional 72 hours with compound treatment prior to UVB exposure.
The media was then aspirated from the wells, with the remaining cells at least 80% confluent in each well. One mL of PBS was then added to each well, and the plate was then placed under a UVB lamp. A UVB sensor was positioned near the plate to register the plate's exposure. The cells were exposed to the UVB light until they reached 0.1 mJ/cm2. Then the plate was covered and transferred to a sterile hood for processing.
The PBS was aspirated out of the wells, and the wells were replenished with 3 mL fresh culture media. The cells were then cultured for an additional 24 hours, and samples were processed 24 hours post-UVB exposure. To process the samples, the media was aspirated, the plate placed on ice, and the cells washed with cold PBS, which was then aspirated off. Another 1 mL of cold PBS was added to each well. The cells were then scraped in the cold PBS solution and transferred to conical tubes on ice. The cells were then spun at ≥1000 RCF at 4° C. for 5 minutes. The cells were then resuspended in 1 mL of cold PBS and transferred to a microcentrifuge tube. The cells were spun at ≥1000 RCF at 4° C. for another 5 minutes, and the PBS was aspirated off. The cell pellet was prepared for lysis.
A RIPA lysis buffer (#BP-115, Boston BioProducts) was added to a Halt protease and […] inhibitor cocktail (#78440, ThermoFisher), and the mixture was cooled on ice. About 30 μL of the lysis buffer mix was added to the cells. The samples were briefly vortexed and then incubated on ice for at least 15 minutes. The cells were then spun≥1000 RCF at 4° C. for 5 minutes and the supernatant was transferred to a clean tube. The protein concentration of the cell lysate was measured using Pierce™ Rapid Gold BCA Protein Assay Kit #AF3225 (ThermoFisher). ELISA analysis was run on select samples using one of the following kits: • a. FastScan™ Phospho-TBK1/NAK (Ser172) ELISA Kit #46948 (Cell Signaling Technologies) • b. FastScan™ Total TBK1/NAK ELISA Kit #15816 (Cell Signaling Technologies) • c. FastScan™ Phospho-STING (Ser366) ELISA Kit #82083 (Cell Signaling Technologies) • d. FastScan™ Phospho-IRF-3 (Ser396) ELISA Kit #50386 (Cell Signaling Technologies) • e. FastScan™ Total IRF-3 ELISA Kit #29771 (Cell Signaling Technologies) • f. Phospho-NAK/TBK1 (S172) ELISA Kit (ab279952) (Abcam) • g. Phospho-IRF3 (S386) ELISA Kit (ab279833) (Abcam) Part II—Results
In the table “A” represents values≤0.50 μM; “B” represents values from >0.50 μM to ≤2.0 μM; “C” represents values from >2.0 μM to ≤5.0 μM; “D” represents values from >5.0 μM to ≤10 μM; and “E” represents values>10 μM.

[3] = Mitochondria toxicity assay with PC3 cells, in-cell ELISA COX-1; conditions: 5 days treatment
Procedure, shortened: as §1

THP1-Dual KO-TREX1 cells = assay: THP1 TREX1 KO inhibition assay (type 1 interferon response); conditions: Homo sapiens, 144 h, type 1 interferon (QUANTI-LUC), 1 μM 5-aza-2′-deoxycytidine, six days
Procedure, shortened: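 THP1-Dual KO-TREX1 cells were treated with a dose titration of compound, alone or with 1 μM 5-aza-2′-deoxycytidine, for six days at 37 °C. Type 1 interferon was read as secreted luciferase (QUANTI-LUC) in the supernatant, and viability by CellTiter-Glo luminescence.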

7S mitochondria DNA = assay: Mitochondria DNA assay with PC3 cells; conditions: Homo sapiens, PC-3, 120 h, 5 days, 7S mitochondria DNA level by qPCR relative to 18S or GAPDH
Procedure: Exemplary compounds were tested for their effect on levels of 7S mitochondria DNA, and the DNA of housekeeping genes 18S and GAPDH. Reduction of 7S mitochondria DNA indicates off-target inhibition of mitochondrial DNA synthesis, which leads to mitochondrial toxicity. Assay procedures and results are described below.
PC3 cells were purchased from ATCC and cultured in F-12 Kaighn's modified medium (Hyclone), 10% heat-inactivated fetal bovine serum (Gibco), 1% Penicillin-Streptomycin (Invitrogen). PC3 cells were treated with a dose titration of a test compound on 6 well plates for 5 days at 37° C., 5% CO2 in a humidified incubator.
Cells were harvested and mitochondria DNA extraction was performed using DNeasy Blood & Tissue Kit (Qiagen) according to the manufacture's instruction.
Mitochondria 7S and housekeeping genes 18S and GAPDH DNA was quantified by multiplex qPCR with the PowerUp™ SYBR™ Green system (Applied Biosystems). Prepare reaction mix consisting of 5 μl of 2× PowerUp™ SYBR™ Green Master Mix, 1 μl of 5 μM Primers for 7S, 18S, or GAPDH, 4 μl of DNA template from DNA extraction above. The primer sequences are below:
qPCR was performed on QuantStudio™ 7 Flex RealTime qPCR system (Applied Biosystems) as set forth below: • a. 50° C. for 2 minutes, then • b. 95° C. for 2 minutes, then • c. 95° C. for 15 seconds, then • d. 60° C. for 60 seconds, • where then steps (c) and (d) were repeated 60 times.
Threshold was calculated by QuantStudio™ 7 Flex Software (ThermoFisher Scientific) using the default settings. Ct values were used to evaluate the relative mitochondria DNA (mtDNA) level using the following formula: ΔCt=Ct (7S target gene)−Ct (18S) or ΔCt=Ct (7S target gene)−Ct (GAPDH). Relative mtDNA level=2^−Δct. Expression fold over DMSO control=2^−Δct (compound treated group)/2^−Δct (DMSO group)
In the table “A” represents values≤0.1 μM; “B” represents values from >0.1 μM to ≤1.0 μM; “C” represents values from >1.0 μM to ≤10.0 μM; “D” represents values from >10.0 μM to ≤100.0 μM; and “E” represents values>100.0 μM.

SMILES | IC50 (PC3 cells) [µM] | IC50 [1] [µM] | IC50 [2] [µM] | IC50 [3] [µM] | IC50 (THP1-Dual KO-TREX1 cells) [nM] | IC50 (7S mitochondria DNA) [µM]
Nc1ccn([C@H]2C[C@H](O)[C@](CO)(C(F)(F)F)O2)c(=O)n1 [Compound 21, 4-amino-1-((2R,4S,5R)-4-hydroxy-5-(hydroxymethyl)-5-(trifluoromethyl)tetrahydrofuran-2-yl)pyrimidin-2(1H)-one] | > 100 | > 100 | > 10 | > 100 |  | 
CC(C)C(=O)OC[C@@]1(CCl)O[C@@H](n2ccc(N)nc2=O)[C@H](F)[C@@H]1OC(=O)C(C)C [Compound 24, (2R,3R,4R,5R)-5-(4-amino-2-oxopyrimidin-1(2H)-yl)-2-(chloromethyl)-4-fluoro-2-((isobutyryloxy)methyl) tetrahydrofuran-3-yl isobutyrate] | > 100 | > 100 |  | > 100 | > 1000 | > 100
Nc1ccn([C@@H]2O[C@@](CO)(CCl)[C@@H](O)[C@H]2F)c(=O)n1 [Compound 31, 4-amino-1-((2R,3R,4R,5R)-5-(chloromethyl)-3-fluoro-4-hydroxy-5-(hydroxymethyl)tetrahydrofuran-2-yl)pyrimidin-2(1H)-one] | 10 to 50 | 10 to 50 |  | 10 to 50 | > 1000 | 0.1 to 1
Nc1nc(=O)n([C@@H]2O[C@@](CO)(CCl)[C@@H](O)[C@@H]2O)cc1F [Compound 73, 4-amino-1-((2R,3S,4S,5R)-5-(chloromethyl)-3,4-dihydroxy-5-(hydroxymethyl)tetrahydrofuran-2-yl)-5-fluoropyrimidin-2(1H)-one] | > 100 | > 100 |  | > 100 | > 1000 | > 100
CC[C@]1(CO)O[C@@H](n2cc(F)c(N)nc2=O)[C@@H](F)[C@@H]1O [Compound 77, 4-amino-1-[(2R,3S,4R,5R)-5-ethyl-3-fluoro-4-hydroxy-5-(hydroxymethyl)oxolan-2-yl]-5-fluoropyrimidin-2-one] | > 100 | > 100 |  | > 100 | > 1000 | > 100
Nc1nc(=O)n([C@@H]2O[C@@](CO)(CBr)[C@@H](O)[C@@H]2F)cc1F [Compound 86, 4-amino-1-[(2R,3S,4R,5R)-5-(bromomethyl)-3-fluoro-4-hydroxy-5-(hydroxymethyl)oxolan-2-yl]-5-fluoropyrimidin-2-one] | > 100 | > 100 |  | > 100 | > 1000 | > 100
[N-]=[N+]=N[C@]1(CO)O[C@@H](n2cc(F)c(N)nc2=O)[C@@H](F)[C@@H]1O [Compound 165] | > 100 | < 1 |  | < 1 | 250 to 1000 | 
Nc1ccn([C@@H]2O[C@@](CO)(CBr)[C@@H](O)[C@@H]2F)c(=O)n1 [Compound 172] | > 100 | > 100 |  | > 100 | > 1000 | 
[2H]C([2H])(Cl)[C@]1(CO)O[C@@H](n2cc(F)c(N)nc2=O)[C@@H](F)[C@@H]1O [Compound 175, 4-amino-1-((2R,3S,4R,5R)-5-(chloromethyl-d2)-3-fluoro-4-hydroxy-5-(hydroxymethyl)tetrahydrofuran-2-yl)-5-fluoropyrimidin-2(1H)-one] | > 100 | > 100 |  | > 100 | 250 to 1000 | 
Cc1cn([C@@H]2O[C@@](CO)(CCl)[C@@H](O)[C@@H]2F)c(=O)[nH]c1=O [Compound 176] | > 100 | > 100 |  | > 100 | > 1000 | 
Nc1nc(=O)n([C@@H]2OC(CO)(CO)[C@@H](O)[C@@H]2F)cc1F [Compound 177, 4-amino-5-fluoro-1-((2R,3S,4R)-3-fluoro-4-hydroxy-5,5-bis(hydroxymethyl)tetrahydrofuran-2-yl) pyrimidin-2(1H)-one] | > 100 | > 100 |  | > 100 | > 1000 | 
Cc1cn([C@@H]2O[C@@](CO)(N=[N+]=[N-])[C@@H](O)[C@@H]2F)c(=O)[nH]c1=O [Compound 178, 1-((2R,3S,4R,5R)-5-azido-3-fluoro-4-hydroxy-5-(hydroxymethyl)tetrahydrofuran-2-yl)-5-methylpyrimidine-2,4(1H,3H)-dione] | > 100 | > 100 |  | 10 to 50 | > 1000 | 
O=c1[nH]c(=O)n([C@@H]2O[C@@](CO)(CCO)[C@@H](O)[C@@H]2F)cc1F [Compound 179, 5-fluoro-1-((2R,3S,4R,5R)-3-fluoro-4-hydroxy-5-(2-hydroxyethyl)-5-(hydroxymethyl)tetrahydrofuran-2-yl) pyrimidine-2,4(1H,3H)-dione] | > 100 | > 100 |  | > 100 | > 1000 | 
Cc1cn([C@H]2C[C@H](F)[C@@](C)(CO)O2)c(=O)[nH]c1=O [Compound 180, 1-((2R,4S,5R)-4-fluoro-5-(hydroxymethyl)-5-methyltetrahydrofuran-2-yl)-5-methylpyrimidine-2,4(1H,3H)-dione] | > 100 | > 100 |  | > 100 | > 1000 | 
